Laboratory results as given in patent US20240287054A1, “COMPOUNDS THAT BIND NON-CANONICAL G-QUADRUPLEX STRUCTURES AND METHODS OF MAKING AND USING THE SAME” (The U.S.A., as Represented by the Secretary, Department of …, priority 2021, published 2024).
Where two headings read alike, the source gives them in different places.

Columns and labels:
Assay type in all cases: binding, human
[1] = test system: MYCN G4 DNA; assay: Circular dichroism (CD) thermal melting assay of MYCN G4; conditions: for increase of Tm (ΔTm) of MYCN G4: 20 μM compound, 10 mM Tris pH 7.0, 5 mM KCl
Experimental: For thermal melt assay, MYCN oligonucleotides were prepared in a low KCl buffer (10 mM Tris, pH7.0, 5 mM KCl) at 5 μM concentration. To test the stabilization effect, G4 samples were incubated with and without 20 μM compound (final solution containing 5% DMSO). Then a total of 300 μL solution was added in a cuvette and heated from 20° C. to 95° C. in a CD spectrometer with an interval of 1° C. To calculate the melting temperature (Tm), the peak of CD spectrum at 263 nm was tracked, and […] vs temperature was plotted and fitted using a nonlinear sigmoidal dose-response model with a variable slope in GraphPad Prism 8 software. The shifting of melting temperature (ΔTm) was calculated using Tm (compound)−Tm (DMSO).
For CD melting assay, MYCN oligonucleotides were prepared in KCl buffer (10 mM sodium phosphate, pH7.0, 5 mM KCl) at 5 μM concentration. To test the stabilization effect of the compounds, MYCN G4 DNA samples were mixed with/without the compound (final solution containing 5% DMSO) at designed concentration. Then a total of 300 μL solution was added in a cuvette and heated from 20 to 80° C. in a CD spectrometer with an interval of 1° C. To calculate the melting temperature (Tm), the peak of CD spectrum at 263 nm was tracked, and […] vs temperature was plotted and fitted using a nonlinear sigmoidal dose-response model with a variable slope in GraphPad Prism 8 software.

[2] = target: MYCN G4 DNA; assay: Surface plasmon resonance (SPR) with immobilized biotinylated MYCN G4 DNA; conditions: for positive binding in SPR (SNR>3): single concentration 100 μM compound
Experimental: Surface plasmon resonance (SPR) analysis. The SPR binding assays were performed with a BIAcore 3000 (GE Healthcare) instrument. A CM5 SPR biochip was loaded into the system and primed with running buffer (10 mM Tris, pH7.0, 100 mM KCl, 0.005% Tween 20, 5% DMSO) with a flow rate of 5 μL/min. Then both Flow Cell (Fc) 1 and 2 were activated by EDC/NHS (0.4 M/0.1 M) aqueous solution for 15 min, followed with an injection of streptavidin (SA) solution (0.2 mg/mL in 10 mM sodium acetate buffer, pH4.5) for 30 minutes. After the immobilization amount of SA reached 8,000-10,000 RU, the surface was deactivated by flowing 1 M Ethanolamine aqueous solution (pH 8.5) for 10 min and regenerated with 10 mM NaOH for 2 min to remove the unbound SA. In the meantime, biotinylated MYCN G4 DNA was prepared at 5 μM in the annealing buffer and heated up to 95° C. for 5 min and slowly cooled down. After annealing, a total of 150 μL solution was injected in the Fc 2 of SPR system for 30 min to immobilize DNA onto the chip surface. The small molecule solutions were tested once the baseline was stable.
To detect the binding signal as well as the binding affinity, a higher flowing rate (25 μL/min) was used in both Fc 1 (reference) and Fc 2 (DNA). Each of the compound solution was prepared at 20× designed the concentrations in DMSO, and then diluted into non-DMSO running buffer, resulting in a final concentration of 5% DMSO. Then, a total of 50 μL compound solution was injected in Fc 1-2 flow path for 120 s for association, followed with 200 s running of buffer for dissociation. An injection of 50 μL regeneration buffer (1 M KCl) could be performed between two samples if necessary. The final binding curve was obtained by reference subtraction. To determine the binding affinity (KD), a series of diluted compound solutions were injected and KD was calculated by BIAevaluation 4.0 software (GE Healthcare) using Langmuir 1:1 binding model.
In this example, SPR binding assays were performed to analyze binding activity of representative bivalent compounds of the present disclosure. The compounds of this example included a non-canonical binder component and a G4 stacker component. A BIAcore 3000 (GE Healthcare) instrument was used. A CM5 SPR biochip was used and primed with running buffer (10 mM Tris, pH7.0, 100 mM KCl, 0.005% Tween 20, 5% DMSO). To immobilize the compounds onto the chip surface, the flow rate was set as 5 μL/min. Then the carboxylated dextran on the chip surface was activated by EDC/NHS (0.4 M/0.1 M) aqueous solution for 15 min, followed with an injection of streptavidin (SA) solution (0.2 mg/mL in 10 mM sodium acetate buffer, pH 4.5) for 30 minutes. After the immobilization amount of SA, the surface was quenched by injecting 1 M ethanolamine (EA) aqueous solution (pH 8.5) for 10 min and regenerated with 10 mM NaOH for 2 min to remove the physical adsorption. Furthermore, biotinylated MYCN G4 DNA was prepared at 5 μM in the annealing buffer and heated up to 95° C. for 5 min followed with slowly cooling down to room temperature within 1 h. After annealing, a total of 150 μL solution was injected in the Fc 2 of SPR system for 30 min to immobilize DNA onto the chip surface. The compound solutions were then tested once the baseline was stable.
To detect the binding signal as well as the binding affinity, a higher flowing rate (25 μL/min) was used in both Fc 1 (blank) and Fc 2 (target). Each of the compound solutions was prepared at 20× designed the concentrations in DMSO, and then diluted into non-DMSO running buffer, resulting in a final concentration of 5% DMSO. Then, a total of 50 μL compound solution was injected in Fc 1-2 flow path for 120 s for association, followed with 200 s running of buffer for dissociation. An injection of 50 μL regeneration buffer (1 M KCl) could be performed between two samples if necessary. The final binding curve was obtained by referencing the blank channel (Fc 1). […]

[3] = test system: MYCN G4 DNA with 10×tRNA; assay: Fluorescence titration of MYCN G4 in presence/absence of excess tRNA; conditions: presence/absence of 10×tRNA
Experimental: 2-Aminopurine (2-AP) fluorescence titration. Fluorescence titrations based on 2-aminopurine labeling were performed using the protocol reported previously. Briefly, MYCN G4 oligonucleotide with a 2-AP substitution at either A11 or A18 position was annealed by heating the sample to 95° C. for 5 min and cooling down to RT slowly. The oligonucleotide with folded structure was diluted to 10 μM in Tris buffer (10 mM Tris, pH7.0, 100 mM KCl, 0.005% Tween 20) and prepared in a black 96-well plate (Costar) in triplicate as designed. Small molecules were diluted in DMSO to obtain a series of solutions with concentrations ranging from 0.1 to 5 mM, and then diluted by 20 times added into the plate (5% DMSO final concentration). The final concentration of 2-AP DNA was 1 μM in the well plate. To obtain the background fluorescence, small molecule solutions without DNA were also prepared in the same plate. After incubation for 30 min at RT, the plate was briefly centrifuged and scanned in Synergy Mx microplate reader (BioTek) with Ex 310 nm/Em 365 nm. Fluorescence signals were calculated by averaging the intensities in triplicate wells after subtracting the references. Finally, the binding signals were normalized and the KD value was determined by fitting the curve using a nonlinear sigmoidal dose-response model with a variable slope in GraphPad Prism 8.3.1 software.

[4] = MYCN G4, Langmuir 1:1 model, read-out: SPR KD

SMILES	ΔTm of MYCN G4 ([1]; 10 mM sodium phosphate pH 7.0, 5 mM KCl, 5 μM DNA) [°C]	Kd ([2]; MYCN hairpin G4, SPR titration, read-out: KD by SPR) [nM]	increase of Tm (ΔTm) of MYCN G4 [1] [°C]	effect of excess tRNA on binding affinity [3]	Kd [2, 4] [nM]	positive binding in SPR (SNR>3) [2]	ΔTm of MYCN G4 at 40 μM ([1]; 40 μM MY-1, versus 20 μM)
COc1ccc(-c2noc(-c3ccc(NCCCNc4c5ccc(Cl)cc5nc5ccc(OC)cc45)nn3)n2)cc1 [B33, N^1-(6-chloro-2-methoxyacridin-9-yl)-N^3-(6-(3-(4-methoxyphenyl)-1,2,4-oxadiazol-5-yl)pyridazin-3-yl)propane-1,3-diamine]	6.4	70 ± 13	–	–	–	–	–
CCCN1CCN(c2nnc(-n3cccc3CNCCCN3CCCCCC3)s2)CC1 [Compound 1]	–	–	4.7±0.7	no effect	11700 ± 2600	hits	–
COc1ccc(-c2noc(-c3ccc(NCCCN4CCCC4)nn3)n2)cc1 [MY-1, 6-(3-(4-methoxyphenyl)-1,2,4-oxadiazol-5-yl)-N-(3-(pyrrolidin-1-yl)propyl)pyridazin-3-amine]	–	–	3.7±0.5	no effect	3600 ± 2400	hits	not significantly increased
COc1ccc(-c2noc(-c3ccc(NCCCN4CCCCCC4)nn3)n2)cc1 [MY-8, N-(3-(azepan-1-yl)propyl)-6-(3-(4-methoxyphenyl)-1,2,4-oxadiazol-5-yl)pyridazin-3-amine]	–	–	–	–	1500 ± 300	–	–
